The values below come from patent US20260294874A1, “COMPOSITIONS COMPRISING MODULATORS OF RIBONUCLEOPROTEIN GRANULE FORMATION AND DISSOLUTION AND METHODS OF USE THEREOF” (University of Virginia Patent Foundation, priority 2023, published 2026).

“Also recorded” adds a separate entry of the source. Some results are limits rather than exact numbers.

For this experiment, the system named is stress granules (G3BP1 foci) in HeLa cells. The experiment is described as follows: Immunofluorescence phenotypic screen for stress granules (α-G3BP1) in stressed HeLa cells. As to conditions: 2 h; for effect on SGs (in words): 25 μM; for inhibition at 25 µM: read-out: reduction/inhibition of SGs/cell. Format: cell-based. As for the experimental part: SuTEx compound treatments. Prior to treatments, cells were washed twice with warm phosphate-buffered saline (PBS) and exchanged with serum-free DMEM (supplemented with 1% L-glutamine) for at least 30 minutes at 37° C. with 5% CO2. Compounds were then added as 1000×DMSO stocks (10 μL for 10 cm dishes and 3 μL for 6-well dishes), plates were mixed gently, and cells were incubated for two hours. All compounds were thoroughly vortexed and sonicated for five minutes prior to addition to ensure complete solvation. For microscopy experiments, cultures were seeded at 150,000 cells in 3 mL of DMEM in 6-well THERMO SCIENTIFIC™ BIOLITE™ brand microwell plates (Catalog No. 12556004; Thermo Fisher Scientific Inc., Waltham, Massachusetts. United States of America). For collection, media was aspirated, and cells were washed once with cold PBS before scraping from plates. Cells were centrifuged at 500×g at 4° C. for 5 minutes and supernatant was removed. Cell pellets were resuspended in cold PBS (1 mL) and centrifuged at 1,400×g at 4° C. for 3 minutes. Supernatant was again removed, and pellets were then snap-frozen in liquid nitrogen and stored at −80° C. until needed.
Immunofluorescence. Immunofluorescence (IF) of HEK293T cells was performed as previously described in Ciancone et al., 2022. HeLa cells were seeded at 9.0×10^4 in a 24-well plate with 12-mm glass coverslips. The next day, the cells were treated with 25 μM SuTEx probe for 2 hours in DMEM medium without FBS. The cells were then treated with 75 μM NaAsO2 for 30 minutes and fixed with 3% paraformaldehyde in PBS for 15 minutes at room temperature (RT) and washed with PBS twice. The fixed cells were permeabilized with PBST (0.1% Triton X-100) for 15 minutes at room temperature and blocked with 5% goat serum in PBST for 30 minutes at RT. The cells were incubated with anti-G3BP1 antibody H-10 (Catalog No. sc-365338 at 1:200 dilution; Santa Cruz Biotechnology, Inc., Dallas, Texas, United States of America) for 2 hours at RT and washed with PBST (0.1% Tween-20) for 5 minutes three times. Next, cells were incubated with goat anti-mouse Alexa 594 antibody (Catalog No. 115-585-003 at 1:800 dilution; Jackson ImmunoResearch, West Grove, Pennsylvania, United States of America) for 30 minutes at RT. The cells were washed twice with PBST, stained with Hoechst 33342 (Catalog No. H3570 at […]; Thermo Fischer Scientific) in PBST for 5 minutes, and washed with PBS twice for 5 minutes. The coverslips were mounted in PROLONG™ Gold AntiFade Mountant (Catalog No. P36930, Thermo Fisher Scientific) and imaged using NIS Elements AR software and a Nikon Eclipse Ti microscope equipped with a ×100 objective and CMOS camera. […] A CellProfiler pipeline was developed to quantify the number of stress granules under each condition. Briefly, cells were recognized as blue^+ (nuclei) red^+ (G3BP1) objects, and the red^+ granules that meet the shape and size threshold were identified and counted. Cells on the border of linages were excluded from the analysis for more accurate quantification.
We used immunofluorescence (IF) detection for phenotypic screening of SuTEx compound activity on stress-induced PB and SG levels in cells (FIG. 1B). PBs were induced through glucose deprivation of HEK293T cells and detected by immunofluorescence with anti-enhancer of mRNA-decapping protein 4 (EDC4) as previously described (Kedersha & Anderson, 2007; Ciancone et al., 2022) (~4 vs 2 PBs/cell in −glucose and +glucose conditions, respectively; FIG. 8). EDC4 is an established PB marker for mammalian cells and is important for PB formation (Kedersha & Anderson, 2007; Luo et al., 2018). SGs were induced in HeLa cells by [COMPOUND LEFT OUT] treatments and detected by fluorescent staining with anti-Ras GTPase-activating protein-binding protein 1 (G3BP1) antibody (75 μM [COMPOUND LEFT OUT], 30 min; FIG. 9). G3BP1 foci have been used in previous IF studies to identify SGs in cells (Kedersha & Anderson, 2007). […]

Consider `CC(C)c1cc(C(C)C)c(S(=O)(=O)n2cc(-c3ccc(C(F)(F)F)cc3)nn2)c(C(C)C)c1` [AHL-003], for which the “effect on SGs (in words)” value is given as “block both types of RNP granules; also recorded: inhibited”. For the same molecule, the inhibition at 25 µM (Homo sapiens) was more than 70%.
`COc1ccc(S(=O)(=O)n2cc(CS(C)(=O)=O)nn2)cc1` [AHL-030, 1-((4-Methoxyphenyl)sulfonyl)-4-((methylsulfonyl)methyl)-1H-1,2,3-triazole]: the “effect on SGs (in words)” value was “SG enhancer; also recorded: SG-enhancing; also recorded: enhance SGs; also recorded: increased SGs”. Besides, for the setting “Homo sapiens, read-out: increase in SGs per cell”, the fold induction at 25 µM was approximately 2.
Regarding `COc1ccc(S(=O)(=O)n2cc(C3CCCCC3)nn2)cc1` [HHS-166, 4-Cyclohexyl-1-((4-methoxyphenyl)sulfonyl)-111-1,2,3-triazole], the “effect on SGs (in words)” value is “moderate, but statistically significant inhibitory activity; also recorded: enriched activity; also recorded: inhibits SG assembly; also recorded: inhibited SGs”. In addition, for the setting “Homo sapiens”, the inhibition at 25 µM is approximately 50%.
